Experimental data: patent US20200079757A1, “COMPOUNDS FOR THE TREATMENT OF RESPIRATORY DISEASES” (THE UNIVERSITY OF MELBOURNE, priority 2017, published 2020)

Key:
[1] = system: PAI-1 gene expression in BEAS-2B cells; test: TNF-α and TGF-β induced PAI-1 gene expression in BEAS-2B cells (RT-qPCR); format: cell-based; settings: agent 10 μM
Protocol: The primary assay for the activity of the novel CK1δ/ε inhibitors is the modulation of gene expression in the airway epithelial cell line, the BEAS-2B cells. The assay is conducted under several conditions. Generally, TGF-β or TNF-α is used to elicit fibrogenic or inflammatory genes, respectively. The agents are added at a concentration of 10 μM, or at the indicated concentrations for a period of 30 min prior to the addition of TGF-β/TNF-α which are incubated for a further 20 hours before the addition, in some experiments of the glucocorticoid, dexamethasone (Dex, 30 nM) for the final 4 hours of the experiment, prior to harvest of cellular RNA to measure by RT-qPCR the levels of mRNA of marker genes for inflammation and fibrogenesis. The inhaled corticosteroid (ICS), budesonide is also used in some experiments. Furthermore, the supernatants are harvested at the end of the incubation periods in selected experiments to measure the levels of CSF-2 or IL-8 by ELISA as described in (Tran et al. (2005) British Journal of Pharmacology, 145, 123-131). Prior to experimentation, BEAS-2B and A549 cells were incubated in serum-free DMEM containing 0.25% bovine serum albumin (BSA) and insulin-transferrin-selenium—containing supplement (Monomed A; CSL, Parkville, Melbourne, Australia). Where indicated, cells were treated with one of the series of synthesised compounds (0.3-10 μM) prior to exposure to 100 pM TGF-β1 (R&D Systems, Minneapolis, Minn.) or 300 pM bFGF (Promega, Madison, Wis.). Total RNA was extracted from cultured cells using illustra RNAspin Mini RNA Isolation Kit (GE Healthcare). RNA extracts were reverse-transcribed into cDNA using High-Capacity RNA-to-cDNA Kit (Applied Biosystems). Real-time PCR was then performed using a QuantStudio 6 Flex Real-Time PCR System using iTaq Universal SYBR green supermix and the following thermal protocol: 50° C. (2 min), 95° C. (10 min), then 40 cycles of 95° C. (15 sec), 60° C. (1 min). The threshold cycle (CT) values determined for target genes were normalized against those obtained for 18S ribosomal RNA (18S rRNA), which was included as internal control. The generation of specific PCR products was confirmed by dissociation curve analysis. In the same experiment as described in FIG. 1, the expression of the fibrogen plasminogen activator inhibitor-1 was measured (see FIG. 2). The levels of this gene are increased by both TGF-β and by Dex and they synergise when added together. The CK1 inhibitors concentration-dependently reduce the effects of each of the stimuli and further reduce baseline expression. Their potency in this effect is similar, regardless of the condition being considered. In a separate experiment BEAS-2B cells were exposed to TNF-α with(out) 30 min pretreatment with either SS9-010 or PF670462 (1-10 μM). RNA was then extracted and analyzed by RT-qPCR. Each agent inhibited TNFa stimulated PAI-1 expression with similar potency and maxima (see FIG. 3). Data are presented as mean±SD for n=1 (three technical replicates).

[2] = system: SCNN1A gene expression in BEAS-2B cells; test: TGF-β-induced suppression of dexamethasone-induced SCNN1A gene expression in BEAS-2B cells; format: cell-based; settings: BEAS-2B, agent 10 μM
Protocol: The primary assay for the activity of the novel CK1δ/ε inhibitors is the modulation of gene expression in the airway epithelial cell line, the BEAS-2B cells. The assay is conducted under several conditions. Generally, TGF-β or TNF-α is used to elicit fibrogenic or inflammatory genes, respectively. The agents are added at a concentration of 10 μM, or at the indicated concentrations for a period of 30 min prior to the addition of TGF-β/TNF-α which are incubated for a further 20 hours before the addition, in some experiments of the glucocorticoid, dexamethasone (Dex, 30 nM) for the final 4 hours of the experiment, prior to harvest of cellular RNA to measure by RT-qPCR the levels of mRNA of marker genes for inflammation and fibrogenesis. The inhaled corticosteroid (ICS), budesonide is also used in some experiments. Furthermore, the supernatants are harvested at the end of the incubation periods in selected experiments to measure the levels of CSF-2 or IL-8 by ELISA as described in (Tran et al. (2005) British Journal of Pharmacology, 145, 123-131). Prior to experimentation, BEAS-2B and A549 cells were incubated in serum-free DMEM containing 0.25% bovine serum albumin (BSA) and insulin-transferrin-selenium—containing supplement (Monomed A; CSL, Parkville, Melbourne, Australia). Where indicated, cells were treated with one of the series of synthesised compounds (0.3-10 μM) prior to exposure to 100 pM TGF-β1 (R&D Systems, Minneapolis, Minn.) or 300 pM bFGF (Promega, Madison, Wis.). Total RNA was extracted from cultured cells using illustra RNAspin Mini RNA Isolation Kit (GE Healthcare). RNA extracts were reverse-transcribed into cDNA using High-Capacity RNA-to-cDNA Kit (Applied Biosystems). Real-time PCR was then performed using a QuantStudio 6 Flex Real-Time PCR System using iTaq Universal SYBR green supermix and the following thermal protocol: 50° C. (2 min), 95° C. (10 min), then 40 cycles of 95° C. (15 sec), 60° C. (1 min). The threshold cycle (CT) values determined for target genes were normalized against those obtained for 18S ribosomal RNA (18S rRNA), which was included as internal control. The generation of specific PCR products was confirmed by dissociation curve analysis. In FIG. 1, the effects of SS9-010 are contrasted with those of PF670462 in an assay in BEAS-B cells measuring the induction of the glucocorticoid-regulated gene, SCNN1A encoding the protein epithelial sodium channel alpha subunit. Serum-starved BEAS-2B cells were treated with CK1δ/ε inhibitor PF670462 (1, 3, 10 μM) or SS9-010 (1, 3, 10 μM) 30 min prior to TGF-β1 (40 pM) for 24 hours, then stimulated with dexamethasone (30 nM) for 4 hours. RNA was then extracted and analyzed by RT-qPCR. Data are presented as mean±SEM for n=4 independent experiments. The potency of PF670462 and SS9-010 were similar.

[3] = system: Col 1A gene expression in BEAS-2B cells; test: TNFα and TGFβ induced Col 1A gene expression in BEAS-2B cells (RT-qPCR); format: cell-based; settings: agent 10 μM
Protocol: The primary assay for the activity of the novel CK1δ/ε inhibitors is the modulation of gene expression in the airway epithelial cell line, the BEAS-2B cells. The assay is conducted under several conditions. Generally, TGF-β or TNF-α is used to elicit fibrogenic or inflammatory genes, respectively. The agents are added at a concentration of 10 μM, or at the indicated concentrations for a period of 30 min prior to the addition of TGF-β/TNF-α which are incubated for a further 20 hours before the addition, in some experiments of the glucocorticoid, dexamethasone (Dex, 30 nM) for the final 4 hours of the experiment, prior to harvest of cellular RNA to measure by RT-qPCR the levels of mRNA of marker genes for inflammation and fibrogenesis. The inhaled corticosteroid (ICS), budesonide is also used in some experiments. Furthermore, the supernatants are harvested at the end of the incubation periods in selected experiments to measure the levels of CSF-2 or IL-8 by ELISA as described in (Tran et al. (2005) British Journal of Pharmacology, 145, 123-131).
Prior to experimentation, BEAS-2B and A549 cells were incubated in serum-free DMEM containing 0.25% bovine serum albumin (BSA) and insulin-transferrin-selenium—containing supplement (Monomed A; CSL, Parkville, Melbourne, Australia). Where indicated, cells were treated with one of the series of synthesised compounds (0.3-10 μM) prior to exposure to 100 pM TGF-β1 (R&D Systems, Minneapolis, Minn.) or 300 pM bFGF (Promega, Madison, Wis.).
Total RNA was extracted from cultured cells using illustra RNAspin Mini RNA Isolation Kit (GE Healthcare). RNA extracts were reverse-transcribed into cDNA using High-Capacity RNA-to-cDNA Kit (Applied Biosystems). Real-time PCR was then performed using a QuantStudio 6 Flex Real-Time PCR System using iTaq Universal SYBR green supermix and the following thermal protocol: 50° C. (2 min), 95° C. (10 min), then 40 cycles of 95° C. (15 sec), 60° C. (1 min). The threshold cycle (CT) values determined for target genes were normalized against those obtained for 18S ribosomal RNA (18S rRNA), which was included as internal control. The generation of specific PCR products was confirmed by dissociation curve analysis.

Row | Structure (SMILES) | PAI-1 mRNA level, TGF-β [1] | PAI-1 mRNA level, TNF-α (n = 2) [1] [fold control] | PAI-1 mRNA level, vehicle (no stimulus) [1] [fold control] | SCNN1A mRNA level, Dex [2] [fold control] | SCNN1A mRNA level, TGF-β [2] [fold control] | SCNN1A mRNA level, TGF-β/Dex [2] [fold control] | SCNN1A mRNA level, vehicle (no stimulus) [2] [fold control] | Col1A mRNA level, TGF-β [3] | Col1A mRNA level, TNF-α (n = 2) [3] [fold control] | Col1A mRNA level, vehicle (no stimulus) [3] [fold control] | melting point [°C]
1 | Nc1nccc(-c2c(-c3ccc(F)cc3)ncn2C2CCN(CCCCc3ccccc3)CC2)n1 [SS8-070, 4-(4-(4-Fluorophenyl)-1-[1-(4-phenylbutyl)piperidin-4-yl)-1H-imidazol-5-yl)pyrimidin-2-amine] | 6.57 (n = 2) fold control | 0.79 | 0.41 | 3.79 | 0.42 | 2.15 | 1.63 | 8.52 (n = 2) fold control | 0.88 | 1.17 | 
2 | Nc1nccc(-c2c(-c3ccc(F)cc3)ncn2C23CC4CC(CC(C4)C2)C3)n1 [SS8-122, 4-(Adamantan-1-yl-4-(4-fluorophenyl)-1H-imidazol-5-yl)pyrimidin-2-amine] |  | 2.76 | 1.45 | 4.26 | 0.15 | 1.67 | 0.86 | 8.07 fold control | 1.56 | 1.39 | 
3 | Cc1ccc(-c2ncn(C3CCCCC3)c2-c2ccnc(N)n2)cc1 [SS8-186] | 6.58 ± 1.04 fold control | 1.54 | 0.75 ± 0.07 | 3.06 ± 0.34 | 0.42 ± 0.06 | 1.84 ± 0.25 | 1.36 ± 0.17 | 3.14 ± 0.20 fold control | 0.56 | 0.50 ± 0.12 | 
4 | CCCCN1CCC(n2cnc(-c3ccc(F)cc3)c2-c2ccnc(N)n2)CC1 [SS9-074, 4-(1-(1-Butylpiperidin-4-yl)-4-(4-fluorophenyl)-1H-imidazol-5-yl)pyrimidin-2-amine] | 12.3 (n = 2) fold control | 1.83 | 0.68 | 3.46 | 0.36 | 3.27 | 1.22 | 12.2 (n = 2) fold control | 2.14 | 1.61 | 
5 | CC(C)(C)n1cnc(-c2ccc(F)cc2)c1-c1ccnc(N)n1 [ZH9-190, 4-(1-(Tert-butyl)-4-(4-fluorophenyl)-1H-imidazol-5-yl)pyrimidin-2-amine] |  |  |  |  |  |  |  |  |  |  | 189 to 197
6 | CCn1cnc(-c2ccc(F)cc2)c1-c1ccnc(N)n1 [ZH-6, 4-(1-(Ethyl)-4-(4-fluorophenyl)-1H-imidazol-5-yl)pyrimidin-2-amine] |  |  |  |  |  |  |  |  |  |  | 204 to 212
7 | Nc1nccc(-c2c(-c3ccc(F)cc3)ncn2C2CCC2)n1 [ZH-62, 4-(1-Cyclobutyl-4-(4-fluorophenyl)-1H-imidazol-5-yl)pyrimidin-2-amine] |  |  |  |  |  |  |  |  |  |  | 229 to 231
8 | Nc1nccc(-c2c(-c3ccc(F)cc3)ncn2CC2CCCCC2)n1 [ZH-138, 4-(1-(Cyclohexylmethyl)-4-(4-fluorophenyl)-1H-imidazol-5-yl)pyrimidin-2-amine] |  |  |  |  |  |  |  |  |  |  | 180 to 199
9 | Fc1ccc(-c2ncn(C3CCCCC3)c2-c2ccnc(NC3CCC3)n2)cc1 [compound 81, N-Cyclobutyl-4-(1-cyclohexyl-4-(4-fluorophenyl)-1H-imidazol-5-yl)pyrimidin-2-amine] |  |  |  |  |  |  |  |  |  |  | 185 to 189
10 | C#CCNc1nccc(-c2c(-c3ccc(F)cc3)ncn2C2CCCCC2)n1 [compound 83, 4-(1-Cyclohexyl-4-(4-fluorophenyl)-1H-imidazol-5-yl)-N-(prop-2-yn-1-yl)pyrimidin-2-amine] |  |  |  |  |  |  |  |  |  |  | 147 to 155
11 | OCCNc1nccc(-c2c(-c3ccc(F)cc3)ncn2C2CCCCC2)n1 [compound 84, 2-((4-(1-Cyclohexyl-4-(4-fluorophenyl)-1H-imidazol-5-yl)pyrimidin-2-yl)amino)ethan-1-ol] |  |  |  |  |  |  |  |  |  |  | 180 to 184
